The results in this text go back to patent publication US8653304B2, “2,3-dihydro-1H-indene-2-yl urea derivative and pharmaceutical application of same” (Toray Industries, Inc., priority 2009, dated 2014).

Structures can show the parent of a compound that is named as a salt.

Data set [1] deals with Human CYP (Cytochrome P450). Kind of data set: Metabolic stability in human CYP (human liver microsomes). It is filed as in vitro ADME. Conditions: human liver microsomes 0.5 mg/mL, NADPH, 37° C., comparative control compounds 5 μM. As to the method: Each test compound was mixed at a concentration of 2 μM with a phosphate buffer solution containing Human liver microsomes (Xenotech) in an amount of 0.5 mg/mL. Thereafter, NADPH was added thereto, and the obtained mixture was allowed to react at 37° C. for up to 30 minutes. The reaction was terminated by adding acetonitrile, and then the resultant was centrifuged for 10 minutes at 4° C. to collect a supernatant. The supernatant was pretreated by methanol extraction method, and the concentration of the compound was analyzed by LC/MS/MS (ESI positive mode). The compound remaining rate was calculated from the obtained concentration of the compound.
Background: Liver microsomes are a subcellular fraction often used to study metabolism.

The next data set deals with U937 cells. Kind of data set: Ability to induce drug-induced phospholipidosis (U937, Nile red, flow cytometer). It is filed as cell-based, human. The following applies: 48 hours, 20 μM, fluorescence intensity compared to valproic acid 300 μM. How it is done:
The evaluation of Comparative Compound 4c, which was a comparative control compound, was carried out by a method partially modified from the method described in Cell Biology and Toxicology (2003, Vol. 19, pp. 161-176).
Each test compound was mixed with U937 cells, which are a cell line derived from human monocytes, and the cells were cultured in the presence of 5% CO2 at 37° C. for 48 hours. The cell suspension after the culturing was replaced with a PBS solution containing Nile red (Invitrogen) which is a phospholipid staining solution, and the resulting mixture was allowed to react in the dark at room temperature for 10 minutes. After centrifugal washing with PBS solution, the fluorescence intensity was measured with a flow cytometer (Becton Dickinson) (Excitation Wavelength: 488 nm, Detection Region: 515-545 nm). As a negative control substance, valproic acid (300 μM) was used. […] Each test compound was dissolved in DMSO before use, and the resulting solution was added to the cells such that the final concentration of DMSO was 1%.

`Cc1ccc(-n2nc(C(C)(C)C)cc2NC(=O)Nc2ccc(OCCN3CCOCC3)c3ccccc23)cc1` [Comparative Compound 4c, 1-(3-tert-butyl-1-p-tolyl-1H-pyrazol-5-yl)-3-(4-(2-morpholinoethoxy)naphthalen-1-yl)urea.hydrochloride] had a microsomal CLint at 5 μM in data set [1] of 321 µL/min/mg. Besides, the phospholipidosis judgement result with U937 cells was “positive”.

Broadly, the microsomal CLint is a measure of how fast metabolising enzymes remove a compound, apart from limits set by blood flow. High values mean faster metabolism, low ones greater metabolic stability.
